Experimental findings from US8987220B2, “Production of reprogrammed cells with restored potential” (Nupotential, Inc., priority 2005, dated 2015) are described below.

“Also recorded” adds a separate entry of the source.

One assay deals with 3T3 L1 cells. In words: ATRA followed by osteogenic induction media. The format is cell-based, murine. As for the experimental part:
3T3 L1 cells were grown in media treated with 50-200 nM ATRA. Following ATRA treatment, cells were transferred to 6-well plates and exposed to osteogenic induction media containing DMEM, FBS, ascorbic acid 2-phosphate, dexamethasone, beta glycerophosphate, and vitamin D for 21 days.

Another assay deals with Oct4, Sox2 and nanog. In words: RT-PCR for stem cell/pluripotency markers after ATRA. The assay is classed as cell-based, bovine. The settings on record: after ATRA treatment, data not shown. Here is the method: To determine whether differentiation potential was restored, bovine somatic cells were cultured in T-75 flasks until confluent in CON, DMSO, or ATRA media (same RA as in Example 1).

In the next assay the test system is bovine somatic cells. Description: ATRA followed by adipogenic induction cocktail.
The subject of assay [1] is bovine serial nuclear transfer donor somatic cells. In words: Relative methylated cytosine by reverse-phase HPLC after ATRA treatment. The format is cell-based. To be noted: 10-50 nM ATRA, cultured until confluent. Here is the method: Bovine serial nuclear transfer donor somatic cells (a cell line that has never produced a successful live animal and which is characterized by low blastocyst development rates (<10%, P<0.001) and low pregnancy initiation rates (<1%, P<0.05)) were cultured in T-75 flasks until confluent in growth media (CON), or growth media treated with DMSO, or ATRA (DMSO vehicle); 10 nM, 50 nM, and 100 nM ATRA concentrations were used. Following […] treatment, the cells were collected and DNA from the cells was isolated. The DNA was then completely digested into single nucleotides for reverse-phase HPLC. Reverse-phase HPLC was performed as described by Cezar et al. to measure the relative levels of methylated cytosine residues.

In a further assay the test system is primary rat hepatocytes. In words: ATRA and adipogenic induction cocktail on primary hepatocytes. The assay is classed as cell-based. Here is the method:
Primary rat hepatocytes were grown in media treated with 50-200 nM ATRA. Following treatment, cells were cultured under the same comparative conditions as described above for the bovine somatic cells, except an adipogenic induction cocktail (as described in EXAMPLE 2) was added to the T-75 flasks.

The next assay has as its system GNMT. In words: GNMT gene expression by real-time RT-PCR (GNMT/GAPD ratio). The assay is classed as cell-based, bovine. (In general: Real-time PCR tracks product formation cycle by cycle.)
The mark [2] stands for this setting: 50-200 nM ATRA then osteogenic induction 21 days.

Take `CC1=C(/C=C/C(C)=C/C=C/C(C)=C/C(=O)O)C(C)(C)CCC1` [ATRA, all-trans retinoic acid]: in the assay on 3T3 L1 cells (setting [2]), the “alizarin staining for calcium phosphate mineralization” value was “positive staining; also recorded: calcium phosphate mineralization” and the “alkaline phosphatase staining for osteoblast-like cells” value is reported as “positive staining”. Further, in the assay with 3T3 L1 cells (RT-PCR after ATRA and osteogenic induction), the “osteocalcin and cbfa1 expression (osteoblast-specific markers)” value is reported as “induction”. Further, the “expression of Oct4, Sox2 and nanog” value in the assay with Oct4, Sox2 and nanog was “upregulation and strong expression”. For the same compound, the “oil red-O staining (lipid)” value with bovine somatic cells (ATRA then adipogenic induction 11-12 days) is reported as “positive”. Further, the “PPARγ gene expression (adipocyte differentiation marker)” value with bovine somatic cells (PCR after induction, data not shown) was “induction”. Further, the “cell morphology during exposure to ATRA” value in the assay with bovine somatic cells (structures similar to embryoid bodies) was “significant morphological changes”. Besides, the “reduction in methylated cytosine compared to CON” value in assay [1] is on record as 8-10%. Moreover, the “cell proliferation (confluency)” value with primary rat hepatocytes (50-200 nM ATRA then adipogenic induction media, day 4) is reported as “proliferated significantly”. Moreover, in the assay with primary rat hepatocytes (50-200 nM ATRA, pronounced within 48 hours of induction media), the cell morphology result is on record as “Morphological changes”. Besides, in the assay with GNMT (ATRA-treated growth media, real-time RT-PCR), the “GNMT gene expression (ratio of GNMT to GAPD)” value was “upregulation”. Further, the “response of GNMT transcription to ATRA” value with GNMT (prior experiments) was “dose response”.
